# In patent publication US20130324428A1, “SPECIFIC BIOMARKER FOR IDENTIFICATION OF EXPOSURE TO LOWER ALIPHATIC SATURATED ALDEHYDES AND THE METHOD OF IDENTIFICATION USING THE SAME” (KOREA INSTITUTE OF SCIENCE AND TECHNOLOGY, priority 2012, published 2013):
# Tests used:
# Format in all cases: cell-based, human
# [1] = test system: KIF1A (NM_004321) expression in A549 cells; test: Oligo microarray gene expression, KIF1A; conditions: A549 cells treated 48 hours at the IC20 concentration; Cy5/Cy3 ratio vs untreated control
# Description: (§1) A549 cells were distributed in 6-well plate at the density of 25×10^4 cells/ml, to which lower aliphatic saturated aldehydes were treated for 48 hours at the concentrations determined in Example <1-2>. Total RNA was extracted from the cells by using trizol reagent according to the manufacturer's protocol (Invitrogen life technologies, USA), followed by purification by using RNease mini kit (Qiagen, USA). Genomic DNA was eliminated by using RNase-free DNase set (Qiagen, USA) during the RNA purification. The amount of total RNA was measured with spectrophotometer, and the concentration was confirmed by ND-1000 Spectrophotometer (Thermo Fisher Scientific Inc., USA) and Agilent 2100 Bioanalyzer (Agilent).
# (§2) For oligomicroarray analysis, cDNA was synthesized by using the total RNA obtained from the experimental group treated with lower aliphatic saturated aldehydes prepared in Example <2-1>. 30 μg of the obtained total RNA and 2 μg of oilgo (dT) primer (1 μg/μl) were mixed together, followed by reaction at 65° C. for 10 minutes, which was transferred into ice for annealing. Upon completion of annealing, reagents were added thereto as shown in Table 1 to induce reverse transcription of the annealed RNA. The total RNA extracted from the control group A549 cells was labeled with Cy3-dUTP (green). The total RNA extracted from the experimental group A549 cells treated with lower aliphatic saturated aldehydes was labeled with Cy5-dUTP (red). At that time, the two samples were mixed and purified by using Microcon YM-30 column (Millipore, USA).
# (§3) Hybridization and washing processes were performed according to the protocol provided by Ebiogen Inc.
# (§4) Labeled cRNA was purified. 600 ng of the purified cRNA was reacted at 60° C. for 30 minutes for fragmentation. The prepared cRNA was mixed with 2×GEx Hybridization Buffer HI-RPM. After well mixing, the mixture was loaded on chip, followed by hybridization in the oven at 65° C. for 17 hours. 17 hours later, the chip was washed with GE Wash Buffer […] and with GE Wash Buffer 2 for 1 minute. Centrifugation was performed with the chip at 800 rpm for 3 minutes, followed by drying thereof.
# (§5) Hybridization images on the slide were scanned with Agilent C scanner (Agilent technologies, CA, USA). At that time, the green fluorescent image indicated the activity of gene expressed specifically in the control group, while the red fluorescent image indicated the activity of gene expressed specifically in the experimental group. […] To obtain gene expression rate, the scanned images were analyzed by using Agilent Feature Extraction 10.7.3.1 (Agilent technologies, CA, USA). The extracted data proceeded to normalization by using Agilent GeneSpring GX 11.5.1 (Agilent technologies, CA, USA) to analyze gene expression pattern of each gene. The marker gene for lower aliphatic saturated aldehydes was selected from the obtained data.
# [2] = test system: EMR2 (NM_013447) expression in A549 cells; test: Oligo microarray gene expression, EMR2; conditions: A549 cells treated 48 hours at the IC20 concentration; Cy5/Cy3 ratio vs untreated control
# Description: as §1, §2, §3, §4, §5
# [3] = test system: B3GALT4 (NM_003782) expression in A549 cells; test: Oligo microarray gene expression, B3GALT4; conditions: A549 cells treated 48 hours at the IC20 concentration; Cy5/Cy3 ratio vs untreated control
# Description: as §1, §2, §3, §4, §5
# [4] = in vitro; conditions: human
# Description: (§6) A549 cells (Korean Cell Line Bank), the human lung cancer tissue derived cell line, were cultured in 100 mm dish containing RPMI (Gibro-BRL, USA) supplemented with 10% FBS until the confluency reached 80%. […] The concentration of vehicle was up to 0.1% in every experiment.
# (§7) MTT assay was performed with A549 cell line according to the method of Mossman, et al (J. Immunol. Methods, 65, 55-63, 1983).
# (§8) Particularly, the cells were distributed in 24-well plate (3.5×10^4 cells/well) containing RPMI (Gibro-BRL, USA) and then treated with lower aliphatic saturated aldehydes dissolved in DMSO. 48 hours later, 5 mg/ml of MTT (3-4,5-dimethylthiazol-2,5-diphenyltetra zolium bromide) was added thereto, followed by culture at 37° C. for 3 hours. Then, the medium was discarded and the formed formazan crystal was dissolved in 500 μl of DMSO, which was aliquoted in 96-well plate. OD540 was measured.
# [5] = test system: DHRS9 (NM_005771) expression in A549 cells; test: Oligo microarray gene expression, DHRS9; conditions: A549 cells treated 48 hours at the IC20 concentration; Cy5/Cy3 ratio vs untreated control
# Description: as §1, §2, §3, §4, §5
# [6] = test system: KIAA1199 (NM_018689) expression in A549 cells; test: Oligo microarray gene expression, KIAA1199; conditions: A549 cells treated 48 hours at the IC20 concentration; Cy5/Cy3 ratio vs untreated control
# Description: as §1, §2, §3, §4, §5
# [7] = test system: A549 cells; test: in vitro
# Description: as §6, §7, §8
IC20 at 48 h [4],IC20 [7],SMILES,"Median ratio of microarray, KIF1A [1]","Median ratio of microarray, EMR2 [2]","Median ratio of microarray, B3GALT4 [3]","Median ratio of microarray, DHRS9 [5]","Median ratio of microarray, KIAA1199 [6]"
–,4600 µM,CCCC=O [butylaldehyde],14.175,8.094,0.498,2.353,1.733
2500 µM,–,CCC=O [propionaldehyde],3.814,6.906,0.483,2.988,4.454

# The next lines start with the compound.
SMILES,IC20 at 48 h [4],IC20 [7],"Median ratio of microarray, KIF1A [1]","Median ratio of microarray, EMR2 [2]","Median ratio of microarray, B3GALT4 [3]","Median ratio of microarray, DHRS9 [5]","Median ratio of microarray, KIAA1199 [6]"
CCCCCCC=O [heptanal],600 µM,–,1.955,2.25,0.634,2.157,2.815
CCCCCCCC=O [octanal],580 µM,–,2.262,1.785,0.564,3.057,2.294
CCCCCC=O [hexanal],800 µM,–,1.682,1.89,0.574,1.654,1.736
CCCCC=O [valeraldehyde],1700 µM,–,7.871,6.242,0.53,2.088,3.122
